This series in a line: collision cross section in nitrogen (drift tube, single-field); higher = larger gas-phase ion size.
The mark [1] stands for this setting: ion type: [M+H], ion source: ESI, ion mode: Positive.
The mark [2] stands for this setting: ion type: [M+Na], ion source: ESI, ion mode: Positive.
Where [3] appears, read: ion type: [M+], ion source: APCI, ion mode: Positive.
Setting [4] is: ion type: [M-H], ion source: ESI, ion mode: Negative.
The mark [5] stands for this setting: ion type: [M+H], ion source: APCI, ion mode: Positive.

Where a name gives a salt, the structure may show the parent alone.
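Also: chemical standards at 10 µM analysed by drift tube IMS-QTOF MS in about 3.95 torr nitrogen, mean of duplicate injections differing ≤1%, mass error below 10 ppm.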

Consider `O=c1[nH]cc(S(=O)(=O)Cl)c(=O)[nH]1` [2,4-Dioxo-1,2,3,4-tetrahydropyrimidine-5-sulfonyl chloride], for which the “collision cross section in nitrogen” value under setting [1] is reported as 140.8 Å².
For the molecule `COCCOCCOCCOCCOC` [2,5,8,11,14-Pentaoxapentadecane], the “collision cross section in nitrogen” value under setting [2] is 147.3 Å².
In the case of `CC(C)(C)c1cc(O)c(C(C)(C)C)cc1O` [2,5-Di-tert-butylbenzene-1,4-diol], the “collision cross section in nitrogen” value under setting [3] came out at 155.1 Å².
On to `Oc1cc(Cl)ccc1Cl` [2,5-Dichlorophenol], for which the “collision cross section in nitrogen” value under setting [4] was determined as 123.3 Å².
`COc1cc(Cl)c(OC)cc1N` [2,5-Dimethoxy-4-chloroaniline]: the “collision cross section in nitrogen” value is, setting by setting: under setting [1], 145 Å²; under setting [3], 133 Å².
`Cc1ccc(C)c(S(=O)(=O)O)c1` [2,5-Dimethylbenzenesulfonic acid monohydrate]: the “collision cross section in nitrogen” value under setting [4] turned out to be 138.2 Å².
With `Cc1ccc(C)c(S(=O)(=O)O)c1` [2,5-Dimethylbenzenesulfonic acid], the “collision cross section in nitrogen” value under setting [4] is given as 138.2 Å².
For `CCC(C)c1cccc(C(C)CC)c1O` (configuration not stated) [2,6-Di(butan-2-yl)phenol], the “collision cross section in nitrogen” value under setting [4] amounted to 151.4 Å².
`COc1cc(C(C)(C)C)c(O)c(C(C)(C)C)c1` [2,6-Di-tert-butyl-4-methoxyphenol]: the “collision cross section in nitrogen” value reads like this: under setting [3], 157.2 Å²; under setting [4], 160.4 Å².
As to `CC(C)(C)c1cc([N+](=O)[O-])cc(C(C)(C)C)c1O` [2,6-Di-tert-butyl-4-nitrophenol], the “collision cross section in nitrogen” value under setting [4] came out at 162.2 Å².
Regarding `Nc1cccc(N)n1` [2,6-Diaminopyridine], the “collision cross section in nitrogen” value turned out to be 118.9 Å² under setting [5] and 119.8 Å² under setting [1].
Regarding `Nc1c(Br)cc([N+](=O)[O-])cc1Br` [2,6-Dibromo-4-nitroaniline], under setting [4], the “collision cross section in nitrogen” value is recorded as 134.9 Å².
In the case of `Nc1cc(Cl)c(N)c(Cl)c1` [2,6-Dichloro-1,4-benzenediamine], the “collision cross section in nitrogen” value reads like this: under setting [1], 135.5 Å²; under setting [3], 128.1 Å².
As to `CC(C)c1cccc(C(C)C)c1N` [2,6-Diisopropylaniline], the “collision cross section in nitrogen” value under setting [5] is on record as 146.6 Å².
With `CCCCCCCCCCCCCN1CC(C)OC(C)C1` (configuration not stated) [2,6-Dimethyl-4-tridecylmorpholine], under setting [1], the “collision cross section in nitrogen” value is 183.5 Å².
In the case of `Cc1cccc2sc3nncn3c12` [2,7,8,9-Tricyclazole], the “collision cross section in nitrogen” value amounted to 136.3 Å² under setting [5], 134 Å² under setting [1] and 153.5 Å² under setting [2].
Take `CC(=O)Nc1ccc2c(c1)Cc1cc(NC(C)=O)ccc1-2` [2,7-Acetylaminofluorene]: the “collision cross section in nitrogen” value is, setting by setting: under setting [5], 176.3 Å²; under setting [1], 175.7 Å²; under setting [2], 180.9 Å²; under setting [3], 167.4 Å²; under setting [4], 174.7 Å².
In the case of `CCCC(C)c1ccccc1O` (configuration not stated) [2-(1-Methylbutyl)phenol], the “collision cross section in nitrogen” value under setting [4] was found to be 138.6 Å².
Consider `CC(C)(C)c1cc(-n2nc3ccccc3n2)c(O)c(C(C)(C)C)c1` [2-(2'-Hydroxy-3',5'-di-tert-butylphenyl)benzotriazole], for which the “collision cross section in nitrogen” value runs as follows: under setting [3], 186 Å²; under setting [4], 192.5 Å².
For the molecule `CC(C)c1cccc(C(C)C)c1N1C(=O)c2ccc(O)cc2C1=O` [2-(2,6-Diisopropylphenyl)-5-hydroxy-1H-isoindole-1,3-dione], the “collision cross section in nitrogen” value under setting [4] was found to be 182 Å².
In the case of `CCCCOCCOCCO` [2-(2-Butoxyethoxy)ethanol], the “collision cross section in nitrogen” value under setting [2] was found to be 141.5 Å².
Regarding `C=CC(=O)OCCOCCOCC` [2-(2-Ethoxyethoxy)ethyl acrylate], the “collision cross section in nitrogen” value under setting [2] is given as 142.6 Å².
In the case of `OCCc1ccccn1` [2-(2-Pyridyl)ethanol], the “collision cross section in nitrogen” value is 120.7 Å² under setting [5] and 121.2 Å² under setting [1].
Consider `Cc1ccc(O)c(-n2nc3ccccc3n2)c1` [2-(2H-Benzotriazol-2-yl)-4-methylphenol], for which the “collision cross section in nitrogen” value under setting [4] was 155.4 Å².
For `CCC(C)c1cc(C(C)(C)C)cc(-n2nc3ccccc3n2)c1O` (configuration not stated) [2-(2H-Benzotriazol-2-yl)-6-(butan-2-yl)-4-tert-butylphenol], the “collision cross section in nitrogen” value under setting [5] came to 187.2 Å² and the “collision cross section in nitrogen” value under setting [4] was determined as 192.5 Å².
On to `c1ccc(CCCc2ccccn2)cc1` [2-(3-Phenylpropyl)pyridine], for which the “collision cross section in nitrogen” value was 140.8 Å² under setting [5] and 141.1 Å² under setting [1].
In the case of `Cc1ccc2nc(-c3ccc(N)cc3)sc2c1S(=O)(=O)O` [2-(4-Aminophenyl)-6-methylbenzothiazole sulfonic acid], the “collision cross section in nitrogen” value is listed as 171.7 Å² under setting [1], 185.9 Å² under setting [2] and 174.2 Å² under setting [4].
`Cc1cc(Cl)ccc1OCC(=O)O` [2-(4-Chloro-2-methylphenoxy)acetic acid]: the “collision cross section in nitrogen” value under setting [4] was found to be 146.1 Å².
`Cc1ccc(-c2nc3ccccc3o2)cc1` [2-(4-Methylphenyl)-1,3-benzoxazole]: the “collision cross section in nitrogen” value reads like this: under setting [5], 145.3 Å²; under setting [1], 145.5 Å².
Regarding `CC(C)(C)c1ccc(OC2CCCCC2O)cc1` (configuration not stated) [2-(4-tert-Butylphenoxy)cyclohexanol], the “collision cross section in nitrogen” value under setting [2] was found to be 179.8 Å².
As for `CCCCCCCCC=CCCCCCCCC1=NCCN1CCO` [2-(8-Heptadecenyl)-2-imidazoline-1-ethanol], the “collision cross section in nitrogen” value under setting [5] is 199.3 Å², the “collision cross section in nitrogen” value under setting [1] turned out to be 199.8 Å² and the “collision cross section in nitrogen” value under setting [4] is recorded as 196.6 Å².
As for `CN(C)Cc1ccccc1O` [2-((Dimethylamino)methyl)phenol], the “collision cross section in nitrogen” value under setting [1] was 162.2 Å².
On to `C=C(C)C(=O)OCCOC(=O)CC(C)=O` [2-(Methacryloyloxy)ethyl acetoacetate], for which the “collision cross section in nitrogen” value under setting [2] was 147.6 Å².
With `CCN(CCO)c1cccc(C)c1` [2-(N-Ethyl-m-toluidino)ethanol], the “collision cross section in nitrogen” value was 140 Å² under setting [5] and 140.6 Å² under setting [1].
Take `Nc1ccccc1S(=O)(=O)c1ccccc1` [2-(Phenylsulfonyl)aniline]: under setting [4], the “collision cross section in nitrogen” value was found to be 151.8 Å².
With `OCCc1ccncc1` [2-(Pyridin-4-yl)ethanol], the “collision cross section in nitrogen” value by setting is: under setting [5], 124.6 Å²; under setting [1], 124.3 Å².
On to `C=CC(=O)NC(C)(C)CS(=O)(=O)O` [2-Acrylamido-2-methyl-1-propanesulfonic acid], for which, under setting [4], the “collision cross section in nitrogen” value amounted to 141.5 Å².
Take `C=CCOCC(CC)(CO)CO` [2-Allyloxymethyl-2-ethylpropanediol]: the “collision cross section in nitrogen” value under setting [2] was determined as 141.3 Å².
Regarding `C=CCc1ccccc1O` [2-Allylphenol], under setting [4], the “collision cross section in nitrogen” value came out at 128.1 Å².
Consider `Cc1cc(C)nc(N)n1` [2-Amino-4,6-dimethylpyrimidine], for which the “collision cross section in nitrogen” value by setting is: under setting [5], 123.7 Å²; under setting [1], 123 Å².
For the molecule `COc1nc(C)nc(N)n1` [2-Amino-4-methoxy-6-methyl-1,3,5-triazine], the “collision cross section in nitrogen” value came out at 122.7 Å² under setting [5] and 123.4 Å² under setting [1].
Consider `Nc1nnc(-c2ccc([N+](=O)[O-])o2)o1` [2-Amino-5-(5-nitro-2-furyl)-1,3,4-oxadiazole], for which the “collision cross section in nitrogen” value under setting [4] was 135.3 Å².
Regarding `Nc1ccc(Cl)cc1C(=O)c1ccccc1` [2-Amino-5-chlorobenzophenone], the “collision cross section in nitrogen” value under setting [4] is 150.4 Å².
On to `Cc1ccc(N)c(S(=O)(=O)O)c1` [2-Amino-5-methylbenzenesulfonic acid], for which the “collision cross section in nitrogen” value under setting [4] was 137.9 Å².
`N#Cc1cc([N+](=O)[O-])ccc1N` [2-Amino-5-nitrobenzonitrile]: the “collision cross section in nitrogen” value under setting [4] worked out at 125.1 Å².
Take `Nc1ccc([N+](=O)[O-])cc1O` [2-Amino-5-nitrophenol]: the “collision cross section in nitrogen” value under setting [4] is on record as 125.3 Å².
For `Nc1cc([N+](=O)[O-])cc(Cl)c1O` [2-Amino-6-chloro-4-nitrophenol], the “collision cross section in nitrogen” value under setting [4] worked out at 130.1 Å².
For the molecule `Nc1nc2ccc([N+](=O)[O-])cc2s1` [2-Amino-6-nitrobenzothiazole], the “collision cross section in nitrogen” value by setting is: under setting [5], 144.1 Å²; under setting [1], 143.6 Å²; under setting [4], 131.3 Å².
For the molecule `CC(C)NC(=O)c1ccccc1N` [2-Amino-N-(1-methylethyl)benzamide], the “collision cross section in nitrogen” value under setting [4] is on record as 140.8 Å².
Take `CN(C1CCCCC1)S(=O)(=O)c1ccccc1N` [2-Amino-N-cyclohexyl-N-methylbenzenesulfonamide]: under setting [2], the “collision cross section in nitrogen” value is 173.9 Å².
For `Nc1ccc2c(c1)C(=O)c1ccccc1C2=O` [2-Aminoanthraquinone], the “collision cross section in nitrogen” value under setting [4] worked out at 144.9 Å².
The same measure, in the same setting: with `Nc1cc(S(=O)(=O)O)ccc1S(=O)(=O)O` [2-Aminobenzene-1,4-disulfonic acid] the figure was 147.3 Å².
On to `Nc1nc2ccccc2[nH]1` [2-Aminobenzimidazole], for which the “collision cross section in nitrogen” value is reported as 126.2 Å² under setting [5], 126.8 Å² under setting [1], 123.9 Å² under setting [3] and 123.5 Å² under setting [4].
On to `N#Cc1ccccc1N` [2-Aminobenzonitrile], for which the “collision cross section in nitrogen” value under setting [4] is given as 118 Å².
In the case of `NCCOS(=O)(=O)O` [2-Aminoethyl hydrogen sulfate], under setting [4], the “collision cross section in nitrogen” value stood at 121.6 Å².
The same measure, in the same setting: next, `Oc1ccccc1Br` [2-Bromophenol]: 120.2 Å².
As to `CCCCCCCCOC(=O)/C=C\C(=O)OCCCCCCCC` [2-Butenedioic acid (2Z)-, dioctyl ester], under setting [2], the “collision cross section in nitrogen” value is reported as 206.4 Å².
Turning to `Nc1ccc(N)c(Cl)c1` [2-Chloro-1,4-diaminobenzene sulfate (1:1)], under setting [1], the “collision cross section in nitrogen” value was 131.4 Å².
In the case of `Nc1ccc([N+](=O)[O-])cc1Cl` [2-Chloro-4-nitroaniline], the “collision cross section in nitrogen” value under setting [4] was 126.1 Å².

The values are drawn from the supplement of paper PMC12317010.
